Results as given in publication PMC11154582, “Modeling the Blood-Brain Barrier Permeability of Potential Heterocyclic Drugs via Biomimetic IAM Chromatography Technique Combined with QSAR Methodology” (Molecules, 2024).
Like-named read-outs stand apart in the source and are kept apart here.

Legend:
[1] = Biomimetic IAM chromatography (log kw, IAM); type: physicochemical; conditions: IAM.PC.DD2 column, buffered acetonitrile, pH 7.4, 25 °C, extrapolated to buffer
Description: High performance liquid chromatography (HPLC) measurements were performed on a Shimadzu Vp liquid chromatographic system (Shimadzu, Izabelin, Poland). This instrument was equipped with LC 10AT pump, SPD 10A ultraviolet-visible detector, SCL 10A system controller, CTO-10 AS chromatographic oven, and a Rheodyne injector valve with a 20 μL loop. As the stationary phase Regis IAM.PC.DD2 column, 100 × 4.6 mm i.d., 10 μm (Morton Grove, IL, USA) was applied.
Buffered acetonitrile mixtures were used as effluents. Acetonitrile concentration, expressed as a volume fraction, was varied within a range from 0.2 to 0.5, with a constant step of 0.1. The buffer was prepared from 0.01 mol L^−1 solutions of Na2HPO4 and citric acid, and a pH value of 7.4 was fixed before mixing with an organic modifier. The flow rate was 1.3 mL min^−1. Each compound sample was dissolved in acetonitrile to obtain a concentration of 0.005 mg mL^−1, and each solute peak was detected under ultraviolet light at a wavelength of λmax = 254 nm. Each measurement was performed at a constant temperature (25 °C) at least three times. The dead time values were measured from sodium chloride peaks.
From among 126 heterocyclic compounds evaluated in this work (Table 1), 89 structures have been investigated previously on the IAM column: these are molecules from groups III, IV, V, VI, VII, VIII, IX, XI, XIII, and XV [21, 22, 23]. The remaining ones, i.e., 37 compounds from groups I, II, X, XII and XIV, were tested in this study for the first time using the biomimetic IAM chromatographic technique. To calculate the log kw values (i.e., the logarithms of retention parameter in the buffer as the mobile phase), the retention parameters, logs k (k = (tr − t0)/t0; where tr is the solute retention time, and t0 is a dead time), that were measured for all tested compounds, were used according to Soczewiński-Wachtmeister’s equation (Equation (5)): (5) log k=logtr−t0/t0=log kw−sφ where φ denotes the volume fraction of acetonitrile as organic modifier in the mobile phase, and kw means the retention parameter corresponding to buffer as the mobile phase. The log kw values were evaluated as linear regression coefficients (Table 2).

[2] = test system: Staphylococcus aureus ATCC 25923; set-up: method as in ref [3] (a number printed in a supplementary file, which may have a reference list of its own: not looked up in the article's list); conditions: versus ampicillin; supplement ref [3]; cited from earlier work
bacteria = test system: bacteria; set-up: method as in ref [3] (a number printed in a supplementary file, which may have a reference list of its own: not looked up in the article's list); conditions: supplement ref [3], cited from earlier work
Pseudomonas aeruginosa = test system: Pseudomonas aeruginosa; set-up: method as in ref [3] (a number printed in a supplementary file, which may have a reference list of its own: not looked up in the article's list); conditions: versus chloramphenicol and ampicillin; supplement ref [3]; cited from earlier work
[3] = IAM column, cited from earlier work
[4] = set-up: method as in ref [19] (a number printed in a supplementary file, which may have a reference list of its own: not looked up in the article's list); conditions: supplement ref [19]; cited from earlier work
[5] = test system: hepatic adenosine A2A receptors; set-up: method as in ref [22] (a number printed in a supplementary file, which may have a reference list of its own: not looked up in the article's list); conditions: antagonizes stimulatory effect of a selective A2A receptor agonist; supplement ref [22]; cited from earlier work
[6] = set-up: method as in ref [21,22] (a number printed in a supplementary file, which may have a reference list of its own: not looked up in the article's list); conditions: supplement ref [21,22]; cited from earlier work
[7] = set-up: method as in ref [22] (a number printed in a supplementary file, which may have a reference list of its own: not looked up in the article's list); conditions: supplement ref [22]; cited from earlier work
[8] = set-up: method as in ref [8,16] (a number printed in a supplementary file, which may have a reference list of its own: not looked up in the article's list); conditions: supplement ref [8,16]; cited from earlier work

**Q.** For `Cc1ccc(N2CCn3c(COc4ccc(Cl)cc4C)nnc32)cc1` [Compound 9], which “log kw, IAM” value [1] is on record?
**A.** 1.95

**Q.** And the “antibacterial activity against Staphylococcus aureus ATCC 25923” value [2]?
**A.** comparable

**Q.** And the antibacterial activity (bacteria)?
**A.** antibacterial

**Q.** Which “log kw, IAM” value [1] does the source give for `Clc1ccc(OCc2nnc3n2CCN3c2ccc(Cl)c(Cl)c2)c(Cl)c1` [Compound 13] here?
**A.** 2.91

**Q.** What about the “selectivity of antibacterial activity” value (bacteria; Gram-negative strains) of the same compound?
**A.** selective activity on Gram-negative strains of bacteria

**Q.** And the antibacterial activity (bacteria)?
**A.** antibacterial

**Q.** What about the “antibacterial potency against Pseudomonas aeruginosa ATCC 25923” value (Pseudomonas aeruginosa) of the same compound?
**A.** superior

**Q.** With `CCc1nnc2n(c1=O)CCN2c1ccc(Cl)c(Cl)c1` [Compound 28] as the compound, how does the “log kw, IAM” value ([3]; ref [23]) read?
**A.** 1.85

**Q.** What about the antiviral activity [4] of the same compound?
**A.** antiviral

**Q.** Which results are given for `COc1ccc(N2CCn3c2nnc(C(=O)NN)c3=O)cc1` [Compound 53]?
**A.** action towards hepatic adenosine A2A receptors [5]: antagonistic; antiradical activity [6]: antiradical; scavenging of the superoxide anion radical [7]: able to scavenge; analgesic activity [8]: analgesic; log kw, IAM ([3]; ref [21]): −0.10
